Data taken from patent US7989602B2, “Synthetic molecules having immune activity” (The Malaghan Institute of Medical Research, priority 2003, dated 2011).
Where two headings read alike, the source gives them in different places.

Tests used:
airway eosinophilia = assay: OVA-induced airway eosinophilia mouse model; type: in vivo, C57B1/6J mice
[1] = tested on: C57BL-6 mouse spleen cells; assay: Cytokine production in vitro by mouse spleen cells (ELISA); type: cell-based
[2] = 5 μg/ml, dissolved in Tween/PBS, PIM-2 control also in 0.02% Tween/PBS, 24 hours
[3] = 5 μg/ml in PBS, 24 hours, 10^6 cells per well, ELISA

Compound | induced production of IFNγ ([1]; in words, summary of Table 4) | induced production of IL-12 ([1]; in words, summary of Table 4) | IFNγ compared with PIM-2 control [1, 3] | IL-12 compared with PIM-2 control [1, 3] | further results
CCCCCCCCCCCCCCCCCC(=O)OCC(CO[C@H]1O[C@H](CO)[C@@H](O)[C@H](O)[C@@H]1O)OC(=O)CCCCCCCCCCCCCCCCC (mixture of isomers) [Compound 17, 1,2-di-O-stearoyl-3-O-α-D-mannopyranosylglycerol] | – | – | – | – | biological activity (airway eosinophilia; results not shown, stated in Example 2): not biologically active
CCCCCCCCCCCCCCCCCC(=O)OC[C@H](COP(=O)(O)OCCO[C@H]1O[C@H](CO)[C@@H](O)[C@H](O)[C@@H]1O)OC(=O)CCCCCCCCCCCCCCCCC [Compound 7, Triethylammonium 1-O-(1,2-di-O-stearoyl-sn-glycero-3-phosphoryl)-2-O-(α-D-mannopyranosyl)-1,2-ethanediol] | notable levels | notable levels | – | – | IFNγ compared with PIM-2 control [1, 2]: 1.26; IL-12 compared with PIM-2 control [1, 2]: 1.03
CCCCCCCCCCCCCCCCCC(=O)OCC(COP(=O)(O)OC(COC1OC(CO)C(O)C(O)C1O)COC1OC(CO)C(O)C(O)C1O)OC(=O)CCCCCCCCCCCCCCCCC [Compound 15, Triethylammonium 2-O-(1,2-O-distearoyl-sn-glycero-3-phoshoryl)-1,3-bis-O-(α-D-mannopyranosyl)glycerol] | levels comparable to PIM-22,6 | – | 0.98 | – | Mean Eosinophil Count (×10^6), least square means by test molecule type (airway eosinophilia; BAL 4 days after intranasal OVA challenge, intranasal treatment in 50 μl PBS, mean over dose rates 0, 0.02, 0.2, 2.0): 0.144 ×10^6
CCCCCCCCCCCCCCCCCC(=O)OC[C@H](COP(=O)([O-])OCCO[C@H]1O[C@H](CO[C@H]2O[C@H](CO)[C@@H](O)[C@H](O)[C@@H]2O)[C@@H](O)[C@H](O)[C@@H]1O)OC(=O)CCCCCCCCCCCCCCCCC.[Na+] [Compound 28, Sodium 1-O-(1,2-di-O-stearoyl-sn-glycero-3-phosphoryl)-2-O-[6-O-(α-D-mannopyranosyl)-α-D-mannopyranosyl]-1,2-ethanediol] | – | – | – | – | IFNγ compared with PIM-2 control [1]: 0.62; IL-10 compared with PIM-2 control [1]: 0.36; IL-12 compared with PIM-2 control [1]: 1.15; induced production of IFNγ [1]: notable levels; induced production of IL-12 [1]: notable levels
CCCCCCCCCCCCCCCCCC(=O)OC[C@H](COP(=O)([O-])OCCCOC1OC(CO)C(O)C(O)C1O)OC(=O)CCCCCCCCCCCCCCCCC.[Na+] (stereo partly shown) [Compound 31] | notable levels | notable levels | 0.75 | 1.80 | –
CCCCCCCCCCCCCCCCCC(=O)OC[C@H](COP(=O)([O-])O[C@@H]1CCCC[C@H]1OC1OC(CO)C(O)C(O)C1O)OC(=O)CCCCCCCCCCCCCCCCC.[Na+] (stereo partly drawn) [Compound 36, 1-O-(Sodium 1,2-di-O-stearoyl-sn-glycero-3-phosphoryl)-2-O-(-α-D-mannopyranosyl)-cyclohexane-1,2-diol] | – | levels greater than PIM-22,6 | 0.05 | 1.59 | IL-4 compared with PIM-2 control [1, 3]: 4.29; IL-10 compared with PIM-2 control [1, 3]: 0.60; induced production of IL-4 ([1]; in words, summary of Table 4): levels greater than PIM-22,6
CCCCCCCCCCCCCCCCCC(=O)OC[C@H](COP(=O)([O-])OC(COC1OC(CO)C(O)C(O)C1O)COC1OC(CO)C(O)C(O)C1O)OC(=O)CCCCCCCCCCCCCCCCC.[Na+] (stereo partly drawn) [Compound 44, Sodium(1,2-di-O-stearoyl-sn-glycero-3-phoshoryl)-2-[1,3-bis-O-(α-D-galactopyranoside)]glycerol] | – | a small amount | – | 0.14 | induced production of IL-12 ([1]; in words, summary of Table 4, listed as compound 44): only a low level
CCCCCCCCCCCCCCCCCCOP(=O)([O-])OC(COC1OC(CO)C(O)C(O)C1O)COC1OC(CO)C(O)C(O)C1O.[Na+] [Compound 47, Sodium 2-O-(Octadecylphosphoryl)-1,3-bis-O-(α-D-mannopyranosyl)glycerol] | – | induced production | 0.03 | 0.56 | IL-4 compared with PIM-2 control [1, 3]: 1.94; IL-10 compared with PIM-2 control [1, 3]: 0.53; induced production of IL-4 ([1]; in words, summary of Table 4): greater levels; induced production of IL-10 ([1]; in words, summary of Table 4): induced production
L-α-Phosphatidylinositol [reference compound] | – | – | 0.39 | – | –
